The values that follow come from ChEMBL document CHEMBL1759968, “Synthesis and biological evaluation of unsaturated keto and exomethylene D-arabinopyranonucleoside analogs: novel 5-fluorouracil analogs that target thymidylate synthase” (Eur J Med Chem, 2011).

The source made the active and inactive calls. The rule behind the calls is not given here.

For one experiment, the system named is Human alphaherpesvirus 1. In words: Antiviral activity against Herpes simplex virus type-1 infected in HEL cells assessed as inhibition of virus-induced cytopathic effect. The class given is functional, organism-based. Background: Protection from cytopathic effect is a common read-out in antiviral testing.
In experiment [1] the test system is Coxsackievirus B4. In words: Antiviral activity against Human coxsackievirus B4 infected in Vero cells assessed as inhibition of virus-induced cytopathic effect. In kind it is functional, organism-based.
In experiment [2] the test system is Vesicular stomatitis virus. Briefly: Antiviral activity against Vesicular stomatitis virus infected in HeLa cells assessed as inhibition of virus-induced cytopathic effect. The class given is functional, organism-based.
In experiment [3] the test system is L1210. Briefly: Cytostatic activity against mouse L1210 cells after 2 days by coulter counting analysis. The class given is functional, cell-based. The following applies: L1210, 48 h.
A further experiment deals with Vaccinia virus. Briefly: Antiviral activity against Vaccinia virus infected in HEL cells assessed as inhibition of virus-induced cytopathic effect. The class given is functional, organism-based. The following applies: Orthopoxvirus vaccinia.
Another experiment deals with FM3A. Briefly: Cytostatic activity against mouse FM3A cells after 2 days by coulter counting analysis. In kind it is functional, cell-based. As to conditions: 48 h.
Experiment [4] deals with HeLa. In words: Cytostatic activity against human HeLa cells after 3 days by coulter counting analysis. In kind it is functional, cell-based. The following applies: 72 h.
In experiment [5] the test system is Vesicular stomatitis virus. Briefly: Antiviral activity against Vesicular stomatitis virus infected in HEL cells assessed as inhibition of virus-induced cytopathic effect. The class given is functional, organism-based.
A further experiment deals with Human alphaherpesvirus 2. In words: Antiviral activity against Herpes simplex virus type-2 infected in HEL cells assessed as inhibition of virus-induced cytopathic effect. In kind it is functional, organism-based.
The subject of experiment [6] is Respiratory syncytial virus. Briefly: Antiviral activity against Respiratory syncytial virus infected in HeLa cells assessed as inhibition of virus-induced cytopathic effect. The class given is functional, organism-based.
The next experiment has as its system CCRF-CEM. Briefly: Cytostatic activity against human CEM cells after 3 days by coulter counting analysis. The class given is functional, cell-based. As to conditions: 72 h.
For experiment [7], the system named is Coxsackievirus B4. Briefly: Antiviral activity against Human coxsackievirus B4 infected in HeLa cells assessed as inhibition of virus-induced cytopathic effect. In kind it is functional, organism-based.
Another experiment has as its system Human respirovirus 3. Briefly: Antiviral activity against Human parainfluenza virus 3 infected in Vero cells assessed as inhibition of virus-induced cytopathic effect. The class given is functional, organism-based.
Experiment [8] relates to Mammalian orthoreovirus 1. Briefly: Antiviral activity against Reovirus 1 infected in Vero cells assessed as inhibition of virus-induced cytopathic effect. The class given is functional, organism-based.
The subject of a further experiment is Punta Toro virus. Briefly: Antiviral activity against Punta Toro virus infected in Vero cells assessed as inhibition of virus-induced cytopathic effect. In kind it is functional, organism-based.
For a further experiment, the system named is Sindbis virus. In words: Antiviral activity against Sindbis virus infected in Vero cells assessed as inhibition of virus-induced cytopathic effect. In kind it is functional, organism-based.
Experiment [9] concerns HeLa. Briefly: Cytostatic activity against human HeLa cells in presence of 20 uM 2'-deoxyuridine. In kind it is functional, cell-based.
The test system of experiment [10] is L1210. In words: Cytostatic activity against mouse L1210 cells in presence of 500 uM uridine. The class given is functional, cell-based.
Experiment [11] concerns HeLa. Briefly: Cytostatic activity against human HeLa cells in presence of 500 uM uracil. The class given is functional, cell-based.
Experiment [12] has as its system HeLa. In words: Cytostatic activity against human HeLa cells in presence of 20 uM thymidine. In kind it is functional, cell-based.
Experiment [13] has as its system HeLa. In words: Cytostatic activity against human HeLa cells in presence of 500 uM uridine. In kind it is functional, cell-based.
For experiment [14], the system named is L1210. In words: Cytostatic activity against mouse L1210 cells in presence of 20 uM 2'-deoxyuridine. In kind it is functional, cell-based.
Experiment [15] has as its system L1210. In words: Cytostatic activity against mouse L1210 cells in presence of 20 uM thymidine. In kind it is functional, cell-based.
Experiment [16] has as its system L1210. In words: Cytostatic activity against mouse L1210 cells in presence of 500 uM uracil. In kind it is functional, cell-based.

For `C=C1[C@H](O)[C@H](O)CO[C@@H]1n1cc(C)c(O)nc1=O`, the result (in the experiment with Human alphaherpesvirus 1; in the experiment on Coxsackievirus B4 [1]; in experiment [2]; in the experiment on Vaccinia virus; in experiment [5]; in the experiment with Human alphaherpesvirus 2) was inactive. Also, the outcome (in experiment [6]; with Coxsackievirus B4 [7]; with Human respirovirus 3; in experiment [8]; in the experiment on Punta Toro virus; with Sindbis virus) was inactive. For the same compound, the IC50 (usually the concentration that gives 50% inhibition) in the experiment with L1210 [3] was 610 µM; in the experiment on FM3A, 775 µM; with HeLa [4], ≥ 800 µM; with CCRF-CEM it was ≥ 800 µM.

On to `C=C1C=CCO[C@@H]1n1cc(C)c(O)nc1=O`, for which the result (in the experiment with Human alphaherpesvirus 1; in the experiment with Coxsackievirus B4 [1]; in experiment [2]; in the experiment on Vaccinia virus; in experiment [5]; in the experiment with Human alphaherpesvirus 2) was inactive. The result (in experiment [6]; in the experiment with Coxsackievirus B4 [7]; in the experiment on Human respirovirus 3; in [8]; in the experiment with Punta Toro virus; in the experiment on Sindbis virus) was inactive. Moreover, the IC50 in the experiment on L1210 [3] was 486 µM; with FM3A, ≥ 900 µM; with HeLa [4], 339 µM; in the experiment on CCRF-CEM, 504 µM.

As to `O=C1C=CCO[C@@H]1n1ccc(O)nc1=O`, the result (in the experiment on Human alphaherpesvirus 1; in the experiment on Coxsackievirus B4 [1]; in experiment [2]; in the experiment on Vaccinia virus; in experiment [5]; in the experiment on Human alphaherpesvirus 2) was inactive. For the same compound, the result (in [6]; in the experiment on Coxsackievirus B4 [7]; with Human respirovirus 3; in experiment [8]; in the experiment on Punta Toro virus; in the experiment on Sindbis virus) was inactive. Also, the IC50 in the experiment on L1210 [3] came to 92 µM; in the experiment with FM3A, 121 µM; with HeLa [4], 42 µM; with CCRF-CEM, 82 µM.

Consider `C=C1C=CCO[C@@H]1n1ccc(NC(=O)c2ccccc2)nc1=O`, for which the outcome (with Human alphaherpesvirus 1; in the experiment on Coxsackievirus B4 [1]; in [2]; with Vaccinia virus; in [5]; with Human alphaherpesvirus 2) was inactive. Besides, the result (in [6]; in the experiment with Coxsackievirus B4 [7]; with Human respirovirus 3; in experiment [8]; with Punta Toro virus; in the experiment on Sindbis virus) was inactive. Besides, the IC50 came out at 368 µM with L1210 [3], 379 µM with FM3A, 296 µM with HeLa [4] and 432 µM with CCRF-CEM.

On to `O=c1[nH]c(=O)n([C@@H]2O[C@H](CO)[C@@H](O)[C@H]2O)cc1F` [5-FLUOROURIDINE], for which the result (in the experiment on Human alphaherpesvirus 1; with Coxsackievirus B4 [1]; in [2]; with Vaccinia virus; in [5]; in the experiment on Human alphaherpesvirus 2) was inactive. The outcome (in [6]; in the experiment on Coxsackievirus B4 [7]; with Human respirovirus 3; in [8]; in the experiment with Punta Toro virus; in the experiment with Sindbis virus) was inactive. The IC50 in the experiment on L1210 [3] stood at 0.014 µM; with FM3A, 0.014 µM; in the experiment on HeLa [9], 22 nM; in the experiment with L1210 [10], 720 nM; in the experiment on HeLa [11], 16 nM; in the experiment with HeLa [12], 17 nM. Further, the IC50 worked out at 1600 nM with HeLa [13], 26 nM in the experiment on L1210 [14], 1200 nM with L1210 [15] and 7.5 nM in the experiment with L1210 [16].

As for `C=C1C=CCO[C@@H]1n1ccc(O)nc1=O`, the result (in the experiment on Human alphaherpesvirus 1; with Coxsackievirus B4 [1]; in experiment [2]; in the experiment with Vaccinia virus; in experiment [5]; in the experiment with Human alphaherpesvirus 2) was inactive. Besides, the result (in experiment [6]; in the experiment with Coxsackievirus B4 [7]; with Human respirovirus 3; in [8]; in the experiment with Punta Toro virus; in the experiment on Sindbis virus) was inactive. Besides, the IC50 in the experiment on L1210 [3] was 549 µM; in the experiment on FM3A, > 1000 µM; with HeLa [4], 760 µM; in the experiment with CCRF-CEM, 450 µM.

For the compound `C=C1[C@H](O)[C@H](O)CO[C@@H]1n1ccc(O)nc1=O`, the result (in the experiment on Human alphaherpesvirus 1; with Coxsackievirus B4 [1]; in experiment [2]; in the experiment on Vaccinia virus; in experiment [5]; with Human alphaherpesvirus 2) was inactive. Moreover, the result (in experiment [6]; in the experiment with Coxsackievirus B4 [7]; in the experiment on Human respirovirus 3; in [8]; in the experiment on Punta Toro virus; in the experiment with Sindbis virus) was inactive. The IC50 in the experiment with L1210 [3] was > 800 µM; in the experiment on FM3A, > 800 µM; in the experiment on HeLa [4], ≥ 800 µM; with CCRF-CEM it was > 800 µM.

For `O=C(Nc1ccn([C@H]2OCC=CC2=O)c(=O)n1)c1ccccc1`, the outcome (with Human alphaherpesvirus 1; in the experiment with Coxsackievirus B4 [1]; in [2]; with Vaccinia virus; in experiment [5]; in the experiment with Human alphaherpesvirus 2) was inactive. Moreover, the outcome (in [6]; in the experiment with Coxsackievirus B4 [7]; in the experiment on Human respirovirus 3; in experiment [8]; with Punta Toro virus; with Sindbis virus) was inactive. Also, the IC50 in the experiment on L1210 [3] turned out to be 28 µM; in the experiment with FM3A it was 62 µM; in the experiment on HeLa [4] it was 72 µM; with CCRF-CEM, 46 µM.

In the case of `O=C1C=CCO[C@@H]1n1cc(C(F)(F)F)c(O)nc1=O`, the result (with Human alphaherpesvirus 1; with Coxsackievirus B4 [1]; in [2]; in the experiment with Vaccinia virus; in experiment [5]; in the experiment with Human alphaherpesvirus 2) was inactive. The outcome (in experiment [6]; with Coxsackievirus B4 [7]; with Human respirovirus 3; in experiment [8]; with Punta Toro virus; in the experiment on Sindbis virus) was inactive. Also, the IC50 in the experiment with L1210 [3] worked out at 23 µM; in the experiment with FM3A it was 46 µM; with HeLa [4], 34 µM; in the experiment with CCRF-CEM, 39 µM.

Regarding `Cc1cn([C@H]2OCC=CC2=O)c(=O)nc1O`, the outcome (in the experiment on Human alphaherpesvirus 1; in the experiment on Coxsackievirus B4 [1]; in experiment [2]; in the experiment on Vaccinia virus; in [5]; with Human alphaherpesvirus 2) was inactive. In addition, the outcome (in [6]; in the experiment on Coxsackievirus B4 [7]; with Human respirovirus 3; in [8]; in the experiment on Punta Toro virus; in the experiment with Sindbis virus) was inactive. The IC50 is 34 µM with L1210 [3], 77 µM with FM3A, 34 µM with HeLa [4] and 104 µM in the experiment on CCRF-CEM.

Regarding `C=C1C=CCO[C@@H]1n1ccc(N)nc1=O`, the outcome (in the experiment with Human alphaherpesvirus 1; with Coxsackievirus B4 [1]; in [2]; in the experiment with Vaccinia virus; in [5]; in the experiment on Human alphaherpesvirus 2) was inactive. Also, the outcome (in experiment [6]; in the experiment on Coxsackievirus B4 [7]; in the experiment on Human respirovirus 3; in [8]; in the experiment on Punta Toro virus; with Sindbis virus) was inactive. Also, the half-maximal inhibitory concentration (IC50) was 1390 µM in the experiment with L1210 [3], ≥ 1800 µM in the experiment with FM3A, 990 µM in the experiment with HeLa [4] and 1550 µM in the experiment on CCRF-CEM.
